Source: the supplement of paper PMC10331698
± gives the standard deviation of the averaged measurements.

Compound: OCC(F)(F)C(F)(F)C(F)(F)C(F)(F)C(F)(F)C(F)(F)CO [1H,1H,8H,8H-Perfluorooctane-1,8-diol] (in DMSO)
Experiment: level (log10 ratio to DMSO vehicle control); higher = higher biomarker level / cell amount than vehicle control
Procedure: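 BioMAP Diversity Plus panel of 12 human primary cell co-culture systems (3C, 4H, LPS, SAg, BT, BF4T, BE3C, CASM3C, HDF3CGF, KF3CT, MyoF, Mphg). Compounds were added 1 h before stimulation and left for 24 h (MyoF 48 h; BT 72 h for soluble read-outs or 6 d for IgG). Biomarkers were read by ELISA, cytotoxicity by SRB, PBMC viability and proliferation by Alamar Blue. Each well value was divided by the mean of 8 DMSO control wells on the same plate and log10 transformed; duplicate blinded samples were tested at 4 concentrations.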

Test System | level (log10) (6700 nM) | level (log10) (20000 nM) | level (log10) (60000 nM)
BF4T:SRB | -0.002 ± 0.0042 | -0.0005 ± 0.0035 | -0.007 ± 0.0071
BT:sTNF-alpha | -0.057 ± 0.045 | -0.0705 ± 0.036 | -0.097 ± 0.18
BE3C:IL-1alpha | 0.002 ± 0.0042 | 0.0015 ± 0.0064 | 0.0055 ± 0.029
LPS:CD106/VCAM-1 | -0.008 ± 0.0057 | -0.011 ± 0.023 | -0.0275 ± 0.018
BF4T:CCL2/MCP-1 | -0.0075 ± 0.0064 | -0.017 ± 0.0014 | -0.009 ± 0.024
4H:VEGFR2 | -0.0165 ± 0.042 | 0.01 ± 0.018 | 0.047 ± 0.068
LPS:CD141/Thrombomodulin | -0.008 ± 0.027 | -0.032 ± 0.0042 | 0.028 ± 0.034
LPS:CD62E/E-Selectin | -0.0495 ± 0.013 | -0.0295 ± 0.022 | -0.044 ± 0.024
SAg:CXCL8/IL-8 | -0.0205 ± 0.04 | -0.0245 ± 0.019 | 0.0095 ± 0.035
LPS:CD69 | 0.014 ± 0.0099 | -0.006 ± 0.045 | -0.0125 ± 0.028
SAg:CD62E/E-Selectin | 0.0005 ± 0.00071 | -0.026 ± 0.0028 | -0.016 ± 0.0042
SAg:Proliferation | -0.0035 ± 0.033 | 0 ± 0.025 | -0.0055 ± 0.039
SAg:PBMC Cytotoxicity | -0.0045 ± 0.03 | 0.036 ± 0.062 | 0.0305 ± 0.033
BF4T:CD90 | -0.011 ± 0.023 | -0.005 ± 0.028 | -0.014 ± 0.018
BT:sIL-6 | -0.029 ± 0.045 | -0.078 ± 0.016 | -0.216 ± 0.054
3C:CXCL9/MIG | 0.0015 ± 0.0035 | -0.0025 ± 0.005 | 0.0105 ± 0.013
BT:Secreted IgG | -0.0265 ± 0.016 | -0.0095 ± 0.016 | -0.098 ± 0.0099
BT:sIL-2 | 0.0065 ± 0.063 | 0.008 ± 0.027 | 0.0055 ± 0.04
BF4T:CXCL8/IL-8 | -0.003 ± 0.0042 | -0.0095 ± 0.0064 | 0.001 ± 0.0071
4H:CD62P/P-selectin | -0.039 ± 0.0028 | 0.004 ± 0.011 | 0.0355 ± 0.0021
BE3C:CXCL8/IL-8 | -0.021 ± 0.027 | -0.0325 ± 0.023 | -0.0245 ± 0.066
4H:CCL26/Eotaxin-3 | 0.0095 ± 0.019 | 0.0125 ± 0.019 | 0.0125 ± 0.0021
3C:SRB | 0.012 ± 0.017 | 0.0035 ± 0.025 | -0.0045 ± 0.04

Test System | level (log10) (6700 nM) | level (log10) (20000 nM) | level (log10) (60000 nM)
BF4T:IL-1alpha | -0.0105 ± 0.011 | -0.0135 ± 0.013 | 0.0145 ± 0.029
BE3C:CXCL11/I-TAC | -0.006 ± 0.0085 | -0.0045 ± 0.026 | -0.0165 ± 0.0064
4H:CD106/VCAM-1 | -0.0295 ± 0.005 | 0.015 ± 0.023 | -0.007 ± 0.0085
BE3C:CD54/ICAM-1 | 0.013 ± 0.0057 | 0.0185 ± 0.018 | -0.003 ± 0.03
3C:HLA-DR | -0.0115 ± 0.015 | -0.007 ± 0.0085 | -0.0175 ± 0.026
BT:sIL-17F | -0.0015 ± 0.03 | -0.158 ± 0.12 | -0.208 ± 0.0092
BF4T:CD106/VCAM-1 | -0.006 ± 0.014 | 0.001 ± 0.0014 | -0.006 ± 0.0057
LPS:CXCL8/IL-8 | -0.0075 ± 0.011 | -0.0305 ± 0.0064 | -0.0125 ± 0.021
BF4T:Keratin 8/18 | -0.0005 ± 0.0021 | 0.021 ± 0.0014 | -0.003 ± 0.0042
BT:sIL-17A | -0.0535 ± 0.14 | -0.25 ± 0.073 | -0.393 ± 0.085
LPS:SRB | 0.0005 ± 0.0092 | -0.003 ± 0.0014 | -0.0035 ± 0.023
LPS:CCL2/MCP-1 | -0.004 ± 0.018 | -0.0115 ± 0.018 | -0.0135 ± 0.036
BF4T:tPA | -0.011 ± 0.014 | -0.024 ± 0.0057 | -0.025 ± 0.0085
3C:Proliferation | -0.059 ± 0.024 | -0.0565 ± 0.013 | -0.106 ± 0.042
BE3C:CXCL10/IP-10 | 0.003 ± 0.013 | -0.006 ± 0.0014 | -0.018 ± 0.0028
BF4T:MMP-9 | -0.019 ± 0.03 | -0.008 ± 0.011 | 0.0075 ± 0.0092
BE3C:EGFR | -0.019 ± 0.024 | -0.01 ± 0.017 | -0.0315 ± 0.005
LPS:CD142/Tissue Factor | 0.011 ± 0.1 | 0.0075 ± 0.033 | -0.0095 ± 0.054
3C:CXCL8/IL-8 | -0.0045 ± 0.0021 | -0.0055 ± 0.0064 | 0.0245 ± 0.023
BE3C:CXCL9/MIG | 0.004 ± 0.0085 | 0 ± 0.016 | -0.006 ± 0.0071
LPS:IL-1alpha | -0.0355 ± 0.049 | -0.064 ± 0.016 | -0.004 ± 0.017
BT:PBMC Cytotoxicity | 0.0065 ± 0.0092 | -0.0145 ± 0.011 | -0.0595 ± 0.011
4H:CCL2/MCP-1 | -0.058 ± 0.04 | -0.0485 ± 0.018 | -0.012 ± 0.02

Test System | level (log10) (6700 nM) | level (log10) (20000 nM) | level (log10) (60000 nM)
SAg:SRB | 0.009 ± 0.0085 | 0.0045 ± 0.005 | 0.0025 ± 0.021
LPS:sPGE2 | -0.0255 ± 0.012 | 0.022 ± 0.0057 | -0.0015 ± 0.016
BF4T:MMP-3 | -0.013 ± 0.0042 | 0.018 ± 0.013 | -0.0095 ± 0.0021
LPS:M-CSF | -0.0285 ± 0.019 | -0.025 ± 0.017 | -0.013 ± 0.048
3C:CD87/uPAR | -0.0245 ± 0.026 | -0.0125 ± 0.0092 | -0.019 ± 0.0028
BF4T:uPA | -0.005 ± 0.0042 | -0.0035 ± 0.0092 | -0.0035 ± 0.012
BF4T:PAI-I | 0.018 ± 0.013 | 0 ± 0.0099 | -0.0065 ± 0.011
BE3C:CD87/uPAR | -0.002 ± 0.0085 | 0.026 ± 0.0085 | -0.0195 ± 0.00071
SAg:CD69 | -0.022 ± 0.031 | -0.002 ± 0.0071 | -0.0145 ± 0.015
SAg:CCL2/MCP-1 | -0.0075 ± 0.00071 | -0.015 ± 0.0071 | -0.0085 ± 0.00071
BE3C:HLA-DR | 0.009 | -0.0245 ± 0.0064 | -0.039 ± 0.014
SAg:CD38 | -0.0105 ± 0.011 | -0.003 ± 0.02 | -0.013 ± 0.0028
SAg:CXCL9/MIG | -0.0055 ± 0.0021 | 0.0035 ± 0.0064 | 0.02 ± 0.0085
LPS:CD40 | -0.031 ± 0.0057 | -0.0375 ± 0.032 | -0.0555 ± 0.049
SAg:CD40 | -0.024 ± 0.05 | -0.0115 ± 0.064 | -0.0525 ± 0.043
LPS:sTNF-alpha | -0.123 ± 0.074 | -0.145 ± 0.041 | -0.146 ± 0.018
BT:B cell Proliferation | -0.029 ± 0.024 | -0.007 ± 0.038 | -0.0195 ± 0.052
4H:SRB | 0.0105 ± 0.0021 | 0.006 ± 0.0071 | -0.01 ± 0.025
BF4T:CD54/ICAM-1 | -0.0275 ± 0.0092 | -0.015 ± 0.013 | -0.029 ± 0.017
4H:CD87/uPAR | -0.013 ± 0.0014 | -0.0065 ± 0.0021 | -0.03 ± 0.017
BF4T:CCL26/Eotaxin-3 | 0.004 ± 0.0057 | -0.009 ± 0.033 | -0.019 ± 0.018
BF4T:MMP-1 | -0.0055 ± 0.0064 | -0.0135 ± 0.022 | 0.019 ± 0.03
